Laboratory results published in patent publication US5322698A, “Process for the preparation of a tablet or dragee composition containing a heat-, light- and moisture-sensitive active ingredient having monoclinic crystal structure” (priority 1990, dated 1994).
Counter-ions that a name gives are not always drawn. Like-named read-outs stand apart in the source and are kept apart here.

What was measured:
[1] = Clinical investigations: half life in blood and relative bioavailability; format: in vivo, human; settings: for half-life: human, blood, read-out: half life measured in the blood (converted)
[2] = Storage experiments in the presence of moisture, heat and light load (wet-granulated tablets); format: physicochemical; settings: in the wet-granulated tablet of Comparative Example 1
Description: The tablets obtained were subjected to storage experiments carried out in the presence of moisture and heat as well as light load.

[3] = antiarrhythmic reference drugs; Welling et al. 1985; cited from earlier work

For Cc1cccc(C)c1NNC(=N)N(C)C [1-(2,6-Dimethylphenyl)-4,4'-dimethylaminoguanidine hydrochloride], the relative bioavailability ([1]; composition according to the invention, clinical) was “about 80%”, the half-life ([1]; composition according to the invention) was 3.2 h and the half-life ([1]; injectable composition containing the same active ingredient) was 2.4 h.
In the case of O=C1O[C@H]([C@@H](O)CO)C(O)=C1O [ascorbic acid], the “prevention of decomposition process by antioxidant” value [2] is reported as “could not be prevented by ascorbic acid”.
For C=C[C@H]1C[N@@]2CC[C@H]1C[C@@H]2[C@@H](O)c1ccnc2ccc(OC)cc12 [quinidine], the bioavailability [3] is listed as 40 to 70%.
